The values that follow come from paper PMC2941879 (Bioorganic & medicinal chemistry, 2010).

One assay has as its target α2C receptors. To be noted: read-out: Affinity at α2C receptors; cited from earlier work.
The target in another assay is cloned hD1 receptors (Homo sapiens, UniProt P21728). Put plainly: Cyclic AMP accumulation assay. It counts as cell-based.

Counter-ions that a name gives are not always drawn.

cloned hD1 receptors, sequence (P21728 whole entry): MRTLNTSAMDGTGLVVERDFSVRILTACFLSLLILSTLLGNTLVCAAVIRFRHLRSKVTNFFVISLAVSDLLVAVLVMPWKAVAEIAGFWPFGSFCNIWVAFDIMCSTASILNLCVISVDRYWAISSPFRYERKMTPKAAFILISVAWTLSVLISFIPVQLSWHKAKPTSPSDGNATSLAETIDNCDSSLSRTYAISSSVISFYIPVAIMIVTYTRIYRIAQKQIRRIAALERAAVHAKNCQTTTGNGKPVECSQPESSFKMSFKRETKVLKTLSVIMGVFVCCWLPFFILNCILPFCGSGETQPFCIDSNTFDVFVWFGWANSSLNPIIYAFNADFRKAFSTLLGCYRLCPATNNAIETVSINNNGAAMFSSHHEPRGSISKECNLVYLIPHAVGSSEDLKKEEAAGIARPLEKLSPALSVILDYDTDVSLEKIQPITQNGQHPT

For the molecule `Oc1cc2c(cc1O)C1c3ccccc3CNC1CO2` (centres unmarked) [DOX, doxanthrine], at α2C receptors, the Ki is 2 nM.

On to `Oc1ccc2c(c1O)C[C@@H](c1ccccc1)[C@@H]1CCNC[C@@H]21` [compound 3, Trans-5-Phenyl-1,2,3,4,4a,5,6,10b-octahydrobenzo[h]isoquinoline-7,8-diol Hydrobromide], for which the “Agonist character at D1 receptors” value at cloned hD1 receptors is reported as “full agonist”.
